In publication PMC10035389, “Safety, Tolerability, and Pharmacokinetics of TAK-931, a Cell Division Cycle 7 Inhibitor, in Patients with Advanced Solid Tumors: A Phase I First-in-Human Study” (Cancer Research Communications, 2022):

Tested on: patients with advanced solid tumors
Test: Safety and tolerability (adverse events, NCI CTCAE v4.03), phase I dose-escalation study
Type: in vivo, human
Source text: This was a phase I, open-label, dose-escalation study of single-agent TAK-931. Dose escalation of TAK-931 was cohort based with an adaptive design using Bayesian logistic regression modeling (BLRM) with pharmacokinetic guidance. BLRM also guided MTD estimation from the second dose. Patients were enrolled in one of four dosing schedules (A, B, D, or E; Supplementary Fig. S1) to receive TAK-931. Two additional schedules were planned (C and F) but no patients were enrolled. Schedule A included an initial accelerated escalation phase. TAK-931 was administered once daily for 14 days in 21-day cycles starting at 30 mg, which doubled until a cycle 1 dose-limiting toxicity (DLT) was observed, when 2 patients experienced grade ≥2 treatment-related toxicity, or when maximum geometric mean plasma concentration (Cmax) for the cohort reached or exceeded 800 ng/mL [threshold for off-target adverse effects (hypotension) in animal toxicology studies]; then dose escalation transitioned to modified Fibonacci escalation steps. In schedule B (based on experience with schedule A), patients received TAK-931 once daily or twice daily for 7 days on, 7 days off in a 28-day cycle starting at 60 mg. In schedule D, patients received TAK-931 once daily starting at 20 mg in 21-day cycles; BLRM was not applied but further adjustments were dependent on observed safety, pharmacokinetics, and pharmacodynamics. In schedule E, patients received TAK-931 once daily for 2 days on, 5 days off starting at 100 mg in 21-day cycles. A safety expansion was permitted once MTD had been determined. Prophylactic growth factors were permitted in all schedules to manage severe and/or febrile neutropenia. TAK-931 treatment continued until unacceptable toxicity, disease progression, or patient withdrawal.
DLTs included: cycle 1 grade ≥3 hematologic and non-hematologic events or grade 2 non-hematologic events considered by the investigator to be TAK-931-related, grade 2 ejection fraction decrease, >2 weeks delay in initiating cycle 2 (1 week for schedules D and E), and >50% TAK-931 dose reduction in cycle 1 due to treatment-related adverse events (AEs; see Supplementary Materials and Methods for full DLT criteria). Toxicity was evaluated by NCI Common Terminology Criteria for Adverse Events (version 4.03). Tumor response was measured using the RECIST (version 1.1) ([16]). Serial blood samples for pharmacokinetic analysis were collected during cycle 1 on days 1 and 7 (schedule B), 1 and 8 (schedules A and D), or 1 and 9 (schedule E). Pharmacokinetic parameters were estimated from concentration–time profiles using noncompartmental methods with WinNonlin® Phoenix™ version 8.1 (Certara, Princeton, NJ). pMCM2 was detected semiquantitatively by IHC of histologic sections of formalin-fixed, paraffin-embedded skin and tumor biopsies using anti-pMCM2 (3378-1, Epitomics Inc.; ref. [15]). Quantitative image analysis determined pMCM2 levels as “histologic score nuclei (H-score).” Skin punch biopsies (2–4 mm) were obtained during screening or predose on cycle 1, day 1 and for patients in schedules A, B, and D, postdose on any drug dosing day after 3 consecutive dosing days in cycle 1. A postdose skin biopsy was obtained on day 9 in schedule E. Fresh tumor biopsy pairs were collected predose and postdose on any dosing day after the completion of 3 consecutive dosing days in cycle 1 from patients who received doses considered to have biological effect.
The safety population included patients who received ≥1 dose of TAK-931. The pharmacodynamic-evaluable population comprised patients from the safety population with a baseline and ≥1 additional postbaseline biopsy sample that was suitable for pMCM2 analysis. The pharmacokinetic-evaluable population included patients with sufficient dosing and TAK-931 concentration–time data to estimate pharmacokinetic parameters. […]

[1] = Schedule A (once daily 14 days, 21-day cycles) n = 25
[2] = Schedule B (7 days on, 7 days off, 28-day cycles) n = 24
[3] = Schedule D (continuous once daily) n = 18

Cc1[nH]ncc1-c1cc2nc([C@@H]3CC4CCN3CC4)[nH]c(=O)c2s1 [TAK-931, simurosertib]
3 (13) n (%): Abdominal pain, AE any grade [2] | Blood creatinine increased, AE any grade [2] | Febrile neutropenia, AE any grade [2] | Gamma-glutamyltransferase increased, AE any grade [2] | Lymphopenia, AE any grade [2] | Nasopharyngitis, AE any grade [2] | Pruritus, AE any grade [2] | Rash popular, AE any grade [2]
0 (0) n (%): Fall, AE any grade [1] | Gamma-glutamyltransferase increased, AE any grade [1] | Orthostatic hypotension, AE any grade [1] | Pruritus, AE any grade [1] | Rash popular, AE any grade [1] | Stomatitis, AE any grade [1] | Cough, AE any grade [2] | Electrocardiogram QT prolonged, AE any grade [2] | Lymphocyte count decreased, AE any grade [2] | Abdominal pain, AE any grade [3] | Cough, AE any grade [3] | Electrocardiogram QT prolonged, AE any grade [3] | Febrile neutropenia, AE any grade [3] | Gamma-glutamyltransferase increased, AE any grade [3] | Hypoalbuminemia, AE any grade [3] | Hypotension, AE any grade [3] | Leukopenia, AE any grade [3] | Lymphocyte count decreased, AE any grade [3] | Lymphopenia, AE any grade [3] | Orthostatic hypotension, AE any grade [3]
4 (16) n (%): Edema peripheral, AE any grade [1] | Hypoalbuminemia, AE any grade [1]
8 (32) n (%): White blood cell count decreased, AE any grade [1]
21 (88) n (%): Nausea, AE any grade [2]
1 (4) n %: Anemia, grade ≥3 AE [1] | Febrile neutropenia, grade ≥3 AE [1] | Hypophosphatemia, grade ≥3 AE [1] | Lymphocyte count decreased, grade ≥3 AE [1] | Hypophosphatemia, grade ≥3 AE [2]
3 (17) n (%): Alopecia, AE any grade [3] | Anemia, AE any grade [3] | Fatigue, AE any grade [3] | Malaise, AE any grade [3]
6 (25) n (%): Stomatitis, AE any grade [2]
15 (60) n (%): Nausea, AE any grade [1]
1 (6) n (%): Arthralgia, AE any grade [3] | Blood creatinine increased, AE any grade [3] | Diarrhea, AE any grade [3] | Dry skin, AE any grade [3] | Fall, AE any grade [3] | Nasopharyngitis, AE any grade [3] | Pruritus, AE any grade [3]
1 (4) n (%): Dry skin, AE any grade [1] | Febrile neutropenia, AE any grade [1] | Thrombocytopenia, AE any grade [1] | Arthralgia, AE any grade [2] | Dry skin, AE any grade [2] | Edema peripheral, AE any grade [2] | Fall, AE any grade [2] | Malaise, AE any grade [2] | Orthostatic hypotension, AE any grade [2] | Platelet count decreased, AE any grade [2] | Pyrexia, AE any grade [2] | Tumor pain, AE any grade [2]
5 (21) n (%): Constipation, AE any grade [2] | Decreased appetite, AE any grade [2] | Fatigue, AE any grade [2] | White blood cell count decreased, AE any grade [2]
2 (11) n (%): Constipation, AE any grade [3] | Edema peripheral, AE any grade [3] | Platelet count decreased, AE any grade [3] | Pyrexia, AE any grade [3]
6 (33) n (%): Decreased appetite, AE any grade [3] | Neutropenia, AE any grade [3]
2 (8) n (%): Abdominal pain, AE any grade [1] | Constipation, AE any grade [1] | Fatigue, AE any grade [1] | Hypotension, AE any grade [1] | Lymphopenia, AE any grade [1] | Nasopharyngitis, AE any grade [1] | Platelet count decreased, AE any grade [1] | Hypoalbuminemia, AE any grade [2]
1 (6) n %: Anemia, grade ≥3 AE [3] | Decreased appetite, grade ≥3 AE [3]
12 (48) n (%): Neutropenia, AE any grade [1]
6 (24) n (%): Alopecia, AE any grade [1] | Anemia, AE any grade [1]
11 (44) n %: Neutropenia, grade ≥3 AE [1]
3 (17) n %: Neutropenia, grade ≥3 AE [3]
15 (63) n %: Neutropenia, grade ≥3 AE [2]
4 (17) n (%): Anemia, AE any grade [2] | Diarrhea, AE any grade [2] | Hypotension, AE any grade [2] | Thrombocytopenia, AE any grade [2]
6 (25) n %: Leukopenia, grade ≥3 AE [2]
2 (8) n %: Decreased appetite, grade ≥3 AE [1] | Gamma-glutamyltransferase increased, grade ≥3 AE [2] | Hypoalbuminemia, grade ≥3 AE [2]
5 (20) n (%): Leukopenia, AE any grade [1] | Malaise, AE any grade [1] | Pyrexia, AE any grade [1]
3 (12) n (%): Arthralgia, AE any grade [1] | Blood creatinine increased, AE any grade [1] | Cough, AE any grade [1] | Electrocardiogram QT prolonged, AE any grade [1] | Lymphocyte count decreased, AE any grade [1] | Tumor pain, AE any grade [1]
13 (54) n (%): Alopecia, AE any grade [2] | Leukopenia, AE any grade [2] | Vomiting, AE any grade [2]
3 (13) n %: Anemia, grade ≥3 AE [2] | Febrile neutropenia, grade ≥3 AE [2] | White blood cell count decreased, grade ≥3 AE [2]
7 (28) n (%): Decreased appetite, AE any grade [1] | Diarrhea, AE any grade [1] | Vomiting, AE any grade [1]
3 (12) n %: White blood cell count decreased, grade ≥3 AE [1]
5 (20) n %: Leukopenia, grade ≥3 AE [1]
0 (0) n %: Gamma-glutamyltransferase increased, grade ≥3 AE [1] | Hypoalbuminemia, grade ≥3 AE [1] | Decreased appetite, grade ≥3 AE [2] | Lymphocyte count decreased, grade ≥3 AE [2] | Febrile neutropenia, grade ≥3 AE [3] | Gamma-glutamyltransferase increased, grade ≥3 AE [3] | Hypoalbuminemia, grade ≥3 AE [3] | Hypophosphatemia, grade ≥3 AE [3] | Leukopenia, grade ≥3 AE [3] | Lymphocyte count decreased, grade ≥3 AE [3]
19 (79) n (%): Neutropenia, AE any grade [2]
5 (28) n (%): Nausea, AE any grade [3]
